Measurements taken from paper PMC7589057, “Synthesis of Hantzsch Adducts as Cholinesterases and Calcium Flux inhibitors, Antioxidants and Neuroprotectives” (International Journal of Molecular Sciences, 2020).
“And” between values parts separate entries of the source, which are not always exact repeats. Equal values may be shown once.

How the values were obtained:
EeAChE = EeAChE (Electrophorus electricus, UniProt O42275); assay: biochemical; type: biochemical; details: read-out: AChE % inhibition at 10 μM (no IC50 given); EeAChE; 10 μM
Protocol: (§1) The evaluation of the activity of compounds against both EeAChE and eqBuChE was evaluated following the Ellman spectrophotometric method. Briefly, the reaction happens in a final volume of 3 mL of a 0.1 M phosphate-buffered solution at pH = 8.0, containing 5,5′-dithiobis-2-nitrobenzoic acid, EeAChE or eqBuChE, tested compound and bovine albumin serum phosphate-buffered (pH = 8) solution After this pre-incubation period, acetylthiocholine iodide or butyrylthiocholine iodide was added, allowing 15 min of additional incubation time.

eqBuChE = eqBuChE (Equus caballus, UniProt P81908); assay: biochemical; details: for inhibition at 10 µM: read-out: BuChE % inhibition at 10 μM (no IC50 given), 10 μM; for IC50: mean ± SEM, read-out: BuChE IC50
Protocol: as §1

Ca^+2 channel = assay: Calcium channel blockade (FLIPR Calcium 6, KCl/CaCl2-stimulated SH-SY5Y cells); type: cell-based; details: 10 μM; SH-SY5Y cells stimulated with KCl/CaCl2
Protocol: The calcium channel blockade assay was performed as described earlier. Briefly, the SH-SY5Y cells were seeded out in 96-well dark-walled plates at a density of 1 × 10^5 cells per well. After 24 h, the cells were loaded with FLIPR Calcium 6 indicator (Molecular Devices) for 2 h at 37 °C, according to the manufacturer’s protocol. Compounds were dissolved in an appropriate amount of DMSO at 10 mM concentration and diluted to a final concentration of 10 μM in Hanks′ Balanced Salt Solution (HBSS, Thermo Fisher Scientific) buffered with HEPES (Sigma-Aldrich) at pH = 7.4, and as such used were for treatment of indicator loaded cells (10 min at 37 °C). […] The baseline fluorescence was recorded for 5 s. Then, the cells were stimulated with KCl/CaCl2 solution (in HBSS, final concentration of KCl and CaCl2 was 90 and 5 mM, respectively) and the fluorescence was recorded for a further 30 s. Dimethyl sulfoxide 1% solution in HBSS was used as a vehicle control. Nimodipine (Cayman Chemical Company) was used as a reference inhibitor at 10 μM and compounds were assessed at the same final concentration in triplicate in three independent experiments. Fluorescent intensity values were normalized to the baseline.

[1] = Oxygen radical absorbance capacity assay (ORAC-FL); details: Trolox equivalents, mean (n = 3) ± SEM
Protocol: Briefly, fluorescein and antioxidant were incubated in a black 96-well microplate (Nunc) for 15 min at 37 °C. 2,2′-Azobis(amidinopropane) dihydrochloride was then added quickly using the built-in injector of Varioskan Flash plate reader (Thermo Scientific). […] All the reactions were made in triplicate and at least three different assays were performed for each sample [9, 30].

SH-SY5Y cells [2] = assay: Neuroprotection against H2O2-induced cell death in SH-SY5Y cells (MTS); type: cell-based; details: for H2O2 (%) neuroprotection: H2O2 200 µM
Protocol: (§2) The most balanced compounds were then submitted to evaluation of their neuroprotection activity. For this purpose, cytotoxicity was induced by H2O2, a well-known toxic responsible for the generation of ROS and by mitochondrial respiratory chain blockers oligomycin rotenone (O/R). Prior to the neuroprotective assay, the effect of the compounds on cell viability was evaluated at 1 and 10 µM, showing no cytotoxicity against SH-SY5Y cells.
(§3) SH-SY5Y cells were seeded in 96-well culture plates at a density of 12 × 10^4 cells per well in DMEM/F12 (1:1) medium supplemented with 10% fetal bovine serum, 1X non-essential amino acids, 100 units/mL penicillin and […] streptomycin (Dutscher, France). After 48 h of incubation, the cultures were treated with 100 µl of the test compounds or DMSO (0.1%) in the same medium. After 24 h, the cells were co-incubated with H2O2 (200 µM) or O/R (O at 10 µM/R at 30 µM) with or without the tested compounds at noncytotoxic concentrations for an additional period of 24 h. The percentage of cell viability was measured using CellTiter 96 AQueous Non-Radioactive Cell Proliferation (MTS) Assay (Promega, France).

SH-SY5Y cells [3] = assay: Neuroprotection against oligomycin A/rotenone (O/R)-induced cell death in SH-SY5Y cells (MTS); type: cell-based; details: for O/R (%) neuroprotection: O at 10 µM/R at 30 µM
Protocol: as §2, §3

Sequence of EeAChE (O42275 24-633): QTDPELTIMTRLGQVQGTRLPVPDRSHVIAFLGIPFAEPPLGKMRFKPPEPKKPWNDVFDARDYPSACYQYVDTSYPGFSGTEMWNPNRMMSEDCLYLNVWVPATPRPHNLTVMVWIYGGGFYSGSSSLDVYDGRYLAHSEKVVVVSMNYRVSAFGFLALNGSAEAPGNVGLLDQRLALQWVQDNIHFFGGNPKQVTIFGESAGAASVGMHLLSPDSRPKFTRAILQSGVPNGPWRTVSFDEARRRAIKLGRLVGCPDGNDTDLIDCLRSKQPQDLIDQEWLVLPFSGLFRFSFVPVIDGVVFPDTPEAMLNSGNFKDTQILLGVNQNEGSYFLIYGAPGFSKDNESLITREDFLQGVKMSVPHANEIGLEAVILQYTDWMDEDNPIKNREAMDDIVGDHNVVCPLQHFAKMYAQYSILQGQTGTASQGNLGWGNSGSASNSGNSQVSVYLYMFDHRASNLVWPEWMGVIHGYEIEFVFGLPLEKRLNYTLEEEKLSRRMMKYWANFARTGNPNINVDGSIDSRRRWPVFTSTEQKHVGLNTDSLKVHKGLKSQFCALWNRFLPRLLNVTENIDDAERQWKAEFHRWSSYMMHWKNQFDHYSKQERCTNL
Sequence of eqBuChE (P81908 whole entry): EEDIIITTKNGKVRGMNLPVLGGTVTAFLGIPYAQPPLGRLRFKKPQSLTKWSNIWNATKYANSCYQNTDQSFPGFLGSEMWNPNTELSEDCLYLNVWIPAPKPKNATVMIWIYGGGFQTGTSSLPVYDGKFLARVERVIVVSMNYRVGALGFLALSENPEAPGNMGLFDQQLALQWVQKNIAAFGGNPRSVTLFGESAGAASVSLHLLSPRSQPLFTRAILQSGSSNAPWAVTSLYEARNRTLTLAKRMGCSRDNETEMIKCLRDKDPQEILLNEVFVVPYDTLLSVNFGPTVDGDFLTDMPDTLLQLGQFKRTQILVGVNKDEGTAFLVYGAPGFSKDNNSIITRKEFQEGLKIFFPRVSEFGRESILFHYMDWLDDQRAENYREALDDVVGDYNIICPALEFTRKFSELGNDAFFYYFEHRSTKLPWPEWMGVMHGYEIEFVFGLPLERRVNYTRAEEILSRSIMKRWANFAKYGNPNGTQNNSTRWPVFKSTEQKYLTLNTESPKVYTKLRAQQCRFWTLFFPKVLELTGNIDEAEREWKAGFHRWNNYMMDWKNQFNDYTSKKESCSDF

Structure (SMILES): CCOC(=O)C1=C(C)NC(C)=C(C(=O)OCC)C1c1ccc(OCCCCCCN2CCOCC2)cc1 [3i, 3,5-Ethyl-2,6-dimethyl-4-(4-{[6-(morpholin-4-yl)hexyl]oxy}phenyl)-1,4-dihydropyridine-3,5-dicarboxylate]
- inhibition at 10 µM (EeAChE): < 50%
- inhibition at 10 µM (eqBuChE): < 50%
- (%) Ca Flux Inhibition (Ca^+2 channel): 47.55%
- ORAC [1]: 1.22 ± 0.02 TE

Structure (SMILES): COC(=O)C1=C(C)NC(C)=C(C(=O)OC)C1c1ccc(OCCCCCCN2CCOCC2)cc1 [3j, 3,5-Dimethyl-2,6-dimethyl-4-(4-{[6-(morpholin-4-yl)hexyl]oxy}phenyl)-1,4-dihydropyridine-3,5-dicarboxylate]
- inhibition at 10 µM (EeAChE): < 50%
- inhibition at 10 µM (eqBuChE): < 50%
- (%) Ca Flux Inhibition (Ca^+2 channel): 52.57%
- ORAC [1]: 0.99 ± 0.09 TE

Structure (SMILES): CCOC(=O)C1=C(C)NC(C)=C(C(=O)OCC)C1c1ccc(OCCCCCCN(CC)CC)cc1 [3k, 3,5-Diethyl-4-(4-{[6-(diethylamino)hexyl]oxy}phenyl)–2,6–dimethyl-1,4–dihydropyridine-3,5-dicarboxylate]
- inhibition at 10 µM (EeAChE): < 50%
- IC50 (eqBuChE): 9.6 ± 0.3 µM
- (%) Ca Flux Inhibition (Ca^+2 channel): 31.66%
- ORAC [1]: 1.21 ± 0.12 TE

Structure (SMILES): CCN(CC)CCCCCCOc1ccc(C2C(C(=O)OC)=C(C)NC(C)=C2C(=O)OC)cc1 [3l, 3,5-Dimethyl-4-(4-{[6-(diethylamino)hexyl]oxy}phenyl)-2,6–dimethyl-1,4–dihydropyridine-3,5-dicarboxylate]
- inhibition at 10 µM (EeAChE): < 50%
- IC50 (eqBuChE): 8.7 ± 0.1 µM
- (%) Ca Flux Inhibition (Ca^+2 channel): 39.74%
- ORAC [1]: 0.91 TE and 0.91 ± 0.01 TE

Structure (SMILES): CCOC(=O)C1=C(C)NC(C)=C(C(=O)OCC)C1c1ccc(OCCCCCCN2CCN(C)CC2)cc1 [3m, 3,5-Diethyl-2,6-dimethyl-4-(4-{[6-(4-methylpiperazin-1-yl)hexyl]oxy}phenyl)-1,4-dihydro-pyridine-3,5-dicarboxylate]
- inhibition at 10 µM (EeAChE): < 50%
- IC50 (eqBuChE): 5.5 ± 0.1 µM
- (%) Ca Flux Inhibition (Ca^+2 channel): 50.6%
- ORAC [1]: 1.10 ± 0.08 TE
- ORAC ([1]; listed as 2m): 1.10 TE
- neuroprotective effect against H2O2 (in words) (SH-SY5Y cells [2]): modest
- H2O2 (%) neuroprotection (SH-SY5Y cells [2]; 0.3 µM): 9.55 ± 0.00%
- H2O2 (%) neuroprotection (SH-SY5Y cells [2]; 1 µM): 4.63 ± 0.02%
- neuroprotective effect against O/R (in words) (SH-SY5Y cells [3]): modest
- O/R (%) neuroprotection (SH-SY5Y cells [3]; 0.3 µM): 8.95 ± 0.00%
- O/R (%) neuroprotection (SH-SY5Y cells [3]; 1 µM): 16.65 ± 0.00%

Structure (SMILES): COC(=O)C1=C(C)NC(C)=C(C(=O)OC)C1c1ccc(OCCCCCCN2CCN(C)CC2)cc1 [3n, 3,5-Dimethyl-2,6-dimethyl-4-(4-{[6-(4-methylpiperazin-1-yl)hexyl]oxy}phenyl)-1,4-dihydro-pyridine-3,5-dicarboxylate]
- inhibition at 10 µM (EeAChE): < 50%
- inhibition at 10 µM (eqBuChE): < 50%
- (%) Ca Flux Inhibition (Ca^+2 channel): 28.9%
- ORAC [1]: 1.39 ± 0.12 TE

Structure (SMILES): CCOC(=O)C1=C(C)NC(C)=C(C(=O)OCC)C1c1ccc(OCCCCCCN2CCC(Cc3ccccc3)CC2)cc1 [3o]
- inhibition at 10 µM (EeAChE): < 50%
- inhibition at 10 µM (eqBuChE): < 50%
- (%) Ca Flux Inhibition (Ca^+2 channel): 80.19%
- ORAC [1]: 1.36 ± 0.01 TE

Structure (SMILES): COC(=O)C1=C(C)NC(C)=C(C(=O)OC)C1c1ccc(OCCCCCCN2CCC(Cc3ccccc3)CC2)cc1 [3p, 3,5-Dimethyl-4-(4-{[6-(4-benzylpiperidin-1-yl)hexyl]oxy}phenyl)-2,6-dimethyl-1,4-dihydro-pyridine-3,5-dicarboxylate]
- inhibition at 10 µM (EeAChE): < 50%
- inhibition at 10 µM (eqBuChE): < 50%
- (%) Ca Flux Inhibition (Ca^+2 channel): 78.13%
- ORAC [1]: 2.28 ± 0.01 TE

Structure (SMILES): COCCOC(=O)C1=C(C)NC(C)=C(C(=O)OC(C)C)C1c1cccc([N+](=O)[O-])c1 (stereo not shown) [NIM, nimodipine, reference compound]
- (%) Ca Flux Inhibition (Ca^+2 channel): 47.91%
